Key:
[1] = target: T1, FLT3 (Homo sapiens, UniProt P36888); experiment: TR-FRET kinase activity assay, FLT3; assay type: biochemical; details: ATP at Km, 60 minutes
T1 sequence (P36888 27-993): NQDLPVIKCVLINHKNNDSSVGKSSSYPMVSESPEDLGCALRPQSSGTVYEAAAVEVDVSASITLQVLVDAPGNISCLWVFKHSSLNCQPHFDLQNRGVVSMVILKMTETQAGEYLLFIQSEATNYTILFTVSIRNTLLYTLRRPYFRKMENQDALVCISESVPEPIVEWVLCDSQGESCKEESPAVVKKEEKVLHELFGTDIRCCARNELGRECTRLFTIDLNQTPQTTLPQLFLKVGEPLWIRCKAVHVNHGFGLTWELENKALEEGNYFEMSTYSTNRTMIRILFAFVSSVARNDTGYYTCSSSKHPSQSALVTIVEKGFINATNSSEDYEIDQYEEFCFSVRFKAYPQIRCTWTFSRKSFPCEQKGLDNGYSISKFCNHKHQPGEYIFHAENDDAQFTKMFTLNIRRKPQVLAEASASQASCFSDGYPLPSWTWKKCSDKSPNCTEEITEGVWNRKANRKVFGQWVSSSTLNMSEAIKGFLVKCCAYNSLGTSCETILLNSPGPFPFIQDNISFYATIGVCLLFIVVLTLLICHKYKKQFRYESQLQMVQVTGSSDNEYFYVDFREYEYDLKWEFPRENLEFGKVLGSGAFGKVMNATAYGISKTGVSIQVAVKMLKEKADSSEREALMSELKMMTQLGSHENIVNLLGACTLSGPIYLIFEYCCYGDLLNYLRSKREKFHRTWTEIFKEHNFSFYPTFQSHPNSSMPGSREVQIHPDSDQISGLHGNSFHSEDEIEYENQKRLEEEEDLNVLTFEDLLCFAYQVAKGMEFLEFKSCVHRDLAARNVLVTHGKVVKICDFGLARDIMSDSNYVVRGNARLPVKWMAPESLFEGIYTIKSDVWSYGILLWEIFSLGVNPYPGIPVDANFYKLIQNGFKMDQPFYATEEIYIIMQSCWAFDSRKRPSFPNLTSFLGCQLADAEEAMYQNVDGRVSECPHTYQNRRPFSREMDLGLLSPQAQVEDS
Summary of the method: (§1)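 Enzyme + labelled peptide + cpd premixed; ATP at per-enzyme Km starts rxn. 60 min RT, HEPES pH 7.5/MgCl2/EGTA/Brij 35/DTT buffer. Stop 12.5 mM EDTA, Eu phospho-Ab 30 min dark, TR-FRET read → IC50.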

[2] = target: T2, MERTK (Homo sapiens, UniProt Q12866); experiment: TR-FRET kinase activity assay, MERTK; assay type: biochemical; details: for IC50: TR-FRET activity assay, ATP at Km, 60 minutes, read-out: Mer IC50; for FLT3/Mer ratio (FLT3 IC50/Mer IC50): ratio calculated as FLT3 IC50/Mer IC50
T2 sequence (Q12866 21-999): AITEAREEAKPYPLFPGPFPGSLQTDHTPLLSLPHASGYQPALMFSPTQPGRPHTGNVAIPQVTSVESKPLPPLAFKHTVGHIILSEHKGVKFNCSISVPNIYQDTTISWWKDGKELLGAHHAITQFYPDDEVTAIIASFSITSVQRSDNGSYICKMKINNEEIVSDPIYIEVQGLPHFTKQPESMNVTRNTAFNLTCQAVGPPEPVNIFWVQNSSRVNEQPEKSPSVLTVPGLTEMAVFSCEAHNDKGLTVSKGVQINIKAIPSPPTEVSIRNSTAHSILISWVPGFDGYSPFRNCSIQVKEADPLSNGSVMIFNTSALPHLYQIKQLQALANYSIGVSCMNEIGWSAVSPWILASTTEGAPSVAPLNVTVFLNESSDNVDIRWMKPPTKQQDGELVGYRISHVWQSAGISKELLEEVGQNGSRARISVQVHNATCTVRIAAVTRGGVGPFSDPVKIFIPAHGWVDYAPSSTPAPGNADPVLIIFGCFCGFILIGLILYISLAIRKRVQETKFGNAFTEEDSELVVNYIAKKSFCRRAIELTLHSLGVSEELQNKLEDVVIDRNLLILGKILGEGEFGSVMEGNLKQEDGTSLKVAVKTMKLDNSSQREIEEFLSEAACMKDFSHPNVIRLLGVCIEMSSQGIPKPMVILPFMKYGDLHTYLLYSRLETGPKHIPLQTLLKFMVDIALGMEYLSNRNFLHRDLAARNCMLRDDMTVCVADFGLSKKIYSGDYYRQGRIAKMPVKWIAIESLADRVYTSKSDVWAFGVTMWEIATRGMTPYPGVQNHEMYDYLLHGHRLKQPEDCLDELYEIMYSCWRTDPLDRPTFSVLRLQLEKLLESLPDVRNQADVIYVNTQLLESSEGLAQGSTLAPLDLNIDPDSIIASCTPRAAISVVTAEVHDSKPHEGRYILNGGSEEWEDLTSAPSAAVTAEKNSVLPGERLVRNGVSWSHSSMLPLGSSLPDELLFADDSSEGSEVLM
Summary of the method: as §1

Structure (SMILES) | IC50 [1] | IC50 [2] | FLT3/Mer ratio (FLT3 IC50/Mer IC50) [2]
COC[C@H](C)Nc1ncc2c(-c3ccc(CN4CCN(C)CC4)nc3)cc([C@H]3CC[C@H](O)CC3)n2n1 [Compound 565] | 100 to 1000 nM | ≤ 100 nM | +++ (“+++” represents a ratio of >100)
COC[C@H](C)Nc1ncc2c(-c3ccnc(C4COC4)c3)cc([C@H]3CC[C@H](O)CC3)n2n1 [Compound 566] | 100 to 1000 nM | ≤ 100 nM | +++ (“+++” represents a ratio of >100)
CCS(=O)(=O)N1CC(CC#N)(n2cc(-c3cc([C@H]4CC[C@H](O)CC4)n4nc(N[C@@H](C)COC)ncc34)cn2)C1 [Compound 567] | 1000 to 10000 nM | ≤ 100 nM | +++ (“+++” represents a ratio of >100)
CC[C@]1(O)CC[C@H](c2cc(-c3ccnc(N4CCOCC4)c3)c3cnc(N[C@@H](C)COC)nn32)CC1 [Compound 568] | 100 to 1000 nM | ≤ 100 nM | +++ (“+++” represents a ratio of >100)
COC[C@H](C)Nc1ncc2c(-c3cnn(C4COC4)c3)cc([C@@H]3CC[C@@H](O)C(C)(C)C3)n2n1 [Compound 570] | 100 to 1000 nM | ≤ 100 nM | ++ (“++” represents a ratio of between 10 and 100)
COC[C@H](C)Nc1ncc2c(-c3cnn(C4COC4)c3)cc([C@@H]3CC[C@H](O)C(C)(C)C3)n2n1 [Compound 571] | 100 to 1000 nM | ≤ 100 nM | ++ (“++” represents a ratio of between 10 and 100)
COC[C@H](C)Nc1ncc2c(-c3cncc([S@](C)(=N)=O)c3)cc([C@H]3CC[C@@H](O)CC3)n2n1 [Compound 572] | > 10000 nM | ≤ 100 nM | +++ (“+++” represents a ratio of >100)
COC[C@H](C)Nc1ncc2c(-c3cncc([S@@](C)(=N)=O)c3)cc([C@H]3CC[C@H](O)CC3)n2n1 [Compound 573] | > 10000 nM | ≤ 100 nM | +++ (“+++” represents a ratio of >100)
COC[C@H](C)Nc1ncc2c(-c3ccnc([S@@](C)(=N)=O)c3)cc([C@H]3CC[C@H](O)CC3)n2n1 [Compound 574] | 1000 to 10000 nM | ≤ 100 nM | +++ (“+++” represents a ratio of >100)
COC[C@H](C)Nc1ncc2c(-c3ccnc([S@](C)(=N)=O)c3)cc([C@H]3CC[C@H](O)CC3)n2n1 [Compound 575] | 1000 to 10000 nM | ≤ 100 nM | +++ (“+++” represents a ratio of >100)
COC[C@H](C)Nc1ncc2c([C@H]3CC[C@H](C(C)=O)CC3)cc([C@H]3CC[C@H](O)CC3)n2n1 [Compound 576] | 1000 to 10000 nM | ≤ 100 nM | +++ (“+++” represents a ratio of >100)
COC[C@H](C)Nc1ncc2c([C@H]3CC[C@@H](C(=O)N4CCC(F)(F)CC4)CC3)cc([C@H]3CC[C@H](O)CC3)n2n1 [Compound 577] | 1000 to 10000 nM | ≤ 100 nM | +++ (“+++” represents a ratio of >100)
COC[C@H](C)Nc1ncc2c([C@H]3CC[C@H](C(=O)N4CC5(COC5)C4)CC3)cc([C@H]3CC[C@H](O)CC3)n2n1 [Compound 578] | 1000 to 10000 nM | ≤ 100 nM | +++ (“+++” represents a ratio of >100)
COC[C@H](C)Nc1ncc2c([C@H]3CC[C@@H](C(=O)N4CC5(COC5)C4)CC3)cc([C@H]3CC[C@H](O)CC3)n2n1 [Compound 579] | 1000 to 10000 nM | ≤ 100 nM | +++ (“+++” represents a ratio of >100)
C[C@@H](CC(F)(F)F)Nc1ncc2c(-c3ccnc([S@](C)(=N)=O)c3)cc([C@H]3CC[C@H](O)CC3)n2n1 [Compound 580] | ≤ 100 nM | ≤ 100 nM | +++ (“+++” represents a ratio of >100)
C[C@@H](CC(F)(F)F)Nc1ncc2c(-c3ccnc([S@@](C)(=N)=O)c3)cc([C@H]3CC[C@H](O)CC3)n2n1 [Compound 581] | ≤ 100 nM | ≤ 100 nM | +++ (“+++” represents a ratio of >100)
C[C@@H](CC(F)(F)F)Nc1ncc2c(-c3cncc([S@](C)(=N)=O)c3)cc([C@H]3CC[C@H](O)CC3)n2n1 [Compound 582] | 1000 to 10000 nM | ≤ 100 nM | +++ (“+++” represents a ratio of >100)
C[C@@H](CC(F)(F)F)Nc1ncc2c(-c3cncc([S@@](C)(=N)=O)c3)cc([C@H]3CC[C@H](O)CC3)n2n1 [Compound 583] | 100 to 1000 nM | ≤ 100 nM | +++ (“+++” represents a ratio of >100)
COC[C@H](C)Nc1ncc2c(-c3ccnc(C(F)(F)F)c3)cc([C@H]3CC[C@H](O)CC3)n2n1 [Compound 584] | 1000 to 10000 nM | ≤ 100 nM | +++ (“+++” represents a ratio of >100)
COC[C@H](C)Nc1ncc2c(-c3cnn(C(C)(C)C(=O)N4CCO[C@@H](C(C)(C)O)C4)c3)cc([C@H]3CC[C@H](O)CC3)n2n1 [Compound 585] | 1000 to 10000 nM | ≤ 100 nM | +++ (“+++” represents a ratio of >100)
COC[C@H](C)Nc1ncc2c(-c3cnn(C(C)(C)C(=O)N4CCOC(C(C)(C)O)C4)c3)cc([C@H]3CC[C@H](O)CC3)n2n1 (stereo partly drawn) [Compound 586] | 1000 to 10000 nM | ≤ 100 nM | +++ (“+++” represents a ratio of >100)
COC[C@H](C)Nc1ncc2c(-c3cnn(C4COC4)c3)cc([C@@H]3CC[C@H](O)[C@H](C)C3)n2n1 [Compound 587] | 100 to 1000 nM | ≤ 100 nM | +++ (“+++” represents a ratio of >100)
COC[C@H](C)Nc1ncc2c(-c3cnn(C4COC4)c3)cc([C@@H]3CC[C@H](O)[C@@H](C)C3)n2n1 [Compound 588] | 100 to 1000 nM | ≤ 100 nM | ++ (“++” represents a ratio of between 10 and 100)
COC[C@H](C)Nc1ncc2c(-c3cnn(C4COC4)c3)cc([C@@H]3CC[C@@H](O)[C@H](C)C3)n2n1 [Compound 589] | 100 to 1000 nM | ≤ 100 nM | +++ (“+++” represents a ratio of >100)
COC[C@H](C)Nc1ncc2c(-c3cnn(C(C)(C)C(=O)N4C[C@@H](C)N[C@@H](C)C4)c3)cc([C@H]3CC[C@@H](O)CC3)n2n1 [Compound 591] | 1000 to 10000 nM | ≤ 100 nM | +++ (“+++” represents a ratio of >100)
C[C@@H](COC(F)F)Nc1ncc2c(-c3cnn(C(C)(C)C(=O)N4CCN(C)CC4)c3)cc([C@H]3CC[C@H](O)CC3)n2n1 [Compound 593] | 100 to 1000 nM | ≤ 100 nM | +++ (“+++” represents a ratio of >100)

— patent US11040981B2, “Pyrrolotriazine compounds and methods of inhibiting TAM kinases” (Syros Pharmaceuticals, Inc., priority 2017, dated 2021)
